Drawing on patent US20100292231A1, “Indazole Compounds for Treating Inflammatory Disorders, Demyelinating Disorders and Cancers” (priority 2007, published 2010), this text covers EC50 for three compounds.

One assay has as its target T1, BaF3-D835N (Homo sapiens, UniProt P36888, D835N, cells depend on it).
T1 sequence (P36888 1-993 D835N): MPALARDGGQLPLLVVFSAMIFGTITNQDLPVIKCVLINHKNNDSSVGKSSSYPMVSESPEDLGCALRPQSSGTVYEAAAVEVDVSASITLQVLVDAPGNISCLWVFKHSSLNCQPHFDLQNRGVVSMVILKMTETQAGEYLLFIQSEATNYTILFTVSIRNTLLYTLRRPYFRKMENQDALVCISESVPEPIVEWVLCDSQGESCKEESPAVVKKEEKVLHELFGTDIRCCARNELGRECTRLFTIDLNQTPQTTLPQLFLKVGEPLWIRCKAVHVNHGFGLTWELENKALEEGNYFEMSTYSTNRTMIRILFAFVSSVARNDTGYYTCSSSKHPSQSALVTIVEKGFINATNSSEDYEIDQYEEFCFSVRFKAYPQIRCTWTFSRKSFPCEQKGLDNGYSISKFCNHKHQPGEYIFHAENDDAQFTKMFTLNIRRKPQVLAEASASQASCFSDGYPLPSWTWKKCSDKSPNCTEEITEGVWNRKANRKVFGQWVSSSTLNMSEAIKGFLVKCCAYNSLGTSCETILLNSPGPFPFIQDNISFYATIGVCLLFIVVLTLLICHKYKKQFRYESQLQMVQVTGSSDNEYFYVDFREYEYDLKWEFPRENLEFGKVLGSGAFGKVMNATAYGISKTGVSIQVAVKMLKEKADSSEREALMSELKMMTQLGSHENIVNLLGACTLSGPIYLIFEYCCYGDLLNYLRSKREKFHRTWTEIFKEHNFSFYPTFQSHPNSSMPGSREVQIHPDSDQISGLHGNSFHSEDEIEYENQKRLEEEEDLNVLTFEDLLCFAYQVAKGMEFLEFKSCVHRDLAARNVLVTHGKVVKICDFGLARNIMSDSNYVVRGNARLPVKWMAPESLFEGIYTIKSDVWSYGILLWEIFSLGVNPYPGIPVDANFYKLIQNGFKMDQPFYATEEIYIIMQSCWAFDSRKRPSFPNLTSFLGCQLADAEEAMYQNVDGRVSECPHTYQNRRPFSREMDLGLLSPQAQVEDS
Description: MTS cellular proliferation assay. In kind it is cell-based. Conditions: 72 hour incubation, read-out: Growth inhibitory activity (in vivo EC50 nM). The source says: The viability of Flt3 expressing cells can be evaluated using a tetrazolium salt reduction cell-based assay. […] BaF3, both wild type and mutant, as well as transfected strains, MV4-11 and MOLM14 are well-characterized Flt3-dependent humanized or human cell lines which express active Flt3 receptors (see, Yee et al. Blood (2002)100 (8):2941-2949; Levis et al. (2002) 99(11): 3885-3891). These cell lines were used to determine the ability of the compounds provided herein to inhibit Flt3 in intact cells. In each case, and by methods known to those practiced in the art of cell culture, proliferation was measured after 72 hour incubation with the compounds provided herein using a standard MTS protocol (Promega Cat #5430 “Cell Titer 96 Aqueous Non-radioactive Cell Proliferation Assay”).
In general, cells were plated at 10,000-20,000 cells per well in DMEM medium with 0.5% serum. The compound plate was set up by aliquoting into column 1 of a 96 well 300 ul polypropylene plate, the negative control (DMSO), aliquoting into column 12 the positive control and titrating the test compound in serial dilutions into columns 2-1 l. An aliquot from each well of the compound plate was transferred to the plated cells and then incubated @ […] in 5% CO2. [00538] MTS tetrazolium compound (Owen's reagent) was thawed in a H2O bath. 20 μl of MTS tetrazolium was added to each well of optical plate and the cells were incubated @ 37° C. in 5% CO2 for 2 hours. The absorbance measured at 490 nm using a microplate reader.

For a further assay, the target named is T2, EPHA2 (Homo sapiens, UniProt P29317).
T2 construct: purchased Invitrogen (SelectScreen service)
Nature of the assay: SelectScreen kinase specificity survey. The format is biochemical. Particulars: estimated, abridged dose response curve, read-out: Kinase inhibitory activity EC50. The protocol:
(§1) Testing of the compounds described in this invention was carried out using the SelectScreen™ platform from Invitrogen, Inc. (Carlsbad. Calif., USA) and the details of its performance are readily viewed via the web by linking to: http://www.invitrogen.com/downloads/SelectScrn_Brochure.pdf.
(§2) Briefly, the approach is based on treating each specific kinase with a unique substrate and optical reporter system in the presence of ATP at 100 micromolar. In controls, the substrate is phosphorylated and a baseline optimal response is recorded.
(§3) The compounds were then re-tested by adding graded amounts of putative inhibitor which were added in 5 separate increments to generate a dose response curve. The latter is obtained by fitting to a 4 parameter Hill equation, a sigmoid saturation equation.
(§4) The same assay system described in Example 2 can be applied in the determination of kinase specificity. It is well understood by medicinal chemists in the development of kinase inhibitors that the resulting molecules often lack specificity. Not only are homologous kinases inhibited by the same class of compounds, but also non-homologous kinases can be affected by allosteric, induced, activated vs inactivated conformation, and protein folding interactions with the putative inhibitor, which otherwise had been designed to be specific. These off target effects are difficult to predict and can only be ruled in or out by empirically surveying a large set of kinases. It is also understood that changes to scaffolds and variation in their chemical decorations may influence the extent of promiscuity in the patterns of kinase inhibition across kinase classes.
(§5) The following experiment was conducted to address this issue. The indazole compound (IV), described in Example 2 and representative of the new genus was tested along with Symadex against a panel of 230 kinases representative of all known kinases classes. Included in the survey were the Flt3, its mutant, and close relatives in the Class III receptor tyrosine kinase class, together with serine-threonine kinases and atypical kinases many of which share no homology of active site with Flt3 as shown, for example, in the respective “genecard” for each kinase and available for inspection at on the web at http://www.genecards.org/.
(§6) Table 3 lists the estimated EC50 values from an abridged dose response curve for Symadex (C-1311) and CF-123. The kinases are listed alphabetically by Group and Family.

In another assay the target is T3, ITK (Homo sapiens, UniProt Q08881).
T3 construct: purchased Invitrogen (SelectScreen)
Nature of the assay: SelectScreen kinase specificity survey. In kind it is biochemical. Particulars: estimated, abridged dose response curve, read-out: Kinase inhibitory activity EC50. As for the experimental part: as §1, §2, §3, §4, §5, §6

For another assay, the target named is T4, KIT T670I (Homo sapiens, UniProt P10721, T670I).
T4 construct: purchased Invitrogen (SelectScreen platform)
Description: SelectScreen kinase specificity survey. The format is biochemical. Particulars: estimated, abridged dose response curve, read-out: Kinase inhibitory activity EC50. The protocol:
as §1, §2, §3, §4, §5, §6

The target in another assay is T5, MAP4K2 (GCK) (Homo sapiens, UniProt Q12851).
T5 construct: purchased Invitrogen, Inc. (SelectScreen service)
Nature of the assay: SelectScreen kinase specificity survey. The format is biochemical. Conditions: estimated, abridged dose response curve, read-out: Kinase inhibitory activity EC50. The protocol: as §1, §2, §3, §4, §5, §6

Another assay deals with T6, MAP3K8 (COT) (Homo sapiens, UniProt P41279).
T6 construct: purchased Invitrogen, Inc. (SelectScreen service)
Description: SelectScreen kinase specificity survey. The format is biochemical. Conditions: estimated, abridged dose response curve, read-out: Kinase inhibitory activity EC50. As for the experimental part: as §1, §2, §3, §4, §5, §6

The next assay concerns the target T7, AURKB (Aurora B) (Homo sapiens, UniProt Q96GD4).
T7 construct: purchased Invitrogen, Inc. (SelectScreen service)
Description: SelectScreen kinase specificity survey. In kind it is biochemical. Conditions: estimated, abridged dose response curve, read-out: Kinase inhibitory activity EC50. The protocol: as §1, §2, §3, §4, §5, §6

Each structure is given as a SMILES string.

T7 sequence (Q96GD4 whole entry): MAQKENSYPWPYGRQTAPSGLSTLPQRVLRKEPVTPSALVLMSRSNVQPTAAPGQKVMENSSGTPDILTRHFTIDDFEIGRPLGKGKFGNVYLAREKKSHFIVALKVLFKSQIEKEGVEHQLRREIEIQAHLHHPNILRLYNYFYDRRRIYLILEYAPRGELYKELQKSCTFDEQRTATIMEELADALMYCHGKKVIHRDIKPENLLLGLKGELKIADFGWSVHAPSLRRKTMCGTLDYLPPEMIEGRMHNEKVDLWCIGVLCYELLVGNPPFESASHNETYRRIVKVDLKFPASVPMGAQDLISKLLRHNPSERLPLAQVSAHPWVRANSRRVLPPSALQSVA
T2 sequence (P29317 24-976): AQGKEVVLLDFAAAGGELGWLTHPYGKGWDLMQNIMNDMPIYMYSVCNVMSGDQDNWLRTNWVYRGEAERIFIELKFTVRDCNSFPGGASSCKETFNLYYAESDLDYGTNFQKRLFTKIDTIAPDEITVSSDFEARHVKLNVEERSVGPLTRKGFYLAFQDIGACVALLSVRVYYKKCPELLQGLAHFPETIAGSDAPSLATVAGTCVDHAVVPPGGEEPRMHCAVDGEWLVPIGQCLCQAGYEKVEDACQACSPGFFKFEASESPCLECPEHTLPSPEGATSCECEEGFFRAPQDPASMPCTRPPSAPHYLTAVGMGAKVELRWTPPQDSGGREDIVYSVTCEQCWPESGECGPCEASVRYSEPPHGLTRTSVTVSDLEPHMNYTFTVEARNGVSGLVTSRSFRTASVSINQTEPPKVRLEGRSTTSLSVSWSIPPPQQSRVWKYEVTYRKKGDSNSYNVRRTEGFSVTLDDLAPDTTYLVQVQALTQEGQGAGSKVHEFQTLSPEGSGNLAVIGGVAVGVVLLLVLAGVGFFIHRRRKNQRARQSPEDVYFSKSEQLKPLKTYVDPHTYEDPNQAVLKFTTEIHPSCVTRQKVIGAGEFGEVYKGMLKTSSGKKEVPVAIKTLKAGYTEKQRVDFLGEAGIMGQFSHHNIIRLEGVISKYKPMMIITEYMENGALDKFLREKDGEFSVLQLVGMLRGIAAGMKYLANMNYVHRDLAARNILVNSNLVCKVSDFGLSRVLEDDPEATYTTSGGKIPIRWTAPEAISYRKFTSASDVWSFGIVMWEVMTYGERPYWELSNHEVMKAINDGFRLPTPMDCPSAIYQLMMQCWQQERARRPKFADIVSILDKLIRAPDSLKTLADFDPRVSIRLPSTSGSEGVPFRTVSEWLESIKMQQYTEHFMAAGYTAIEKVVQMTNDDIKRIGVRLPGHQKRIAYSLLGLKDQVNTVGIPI
T4 sequence (P10721 26-976 T670I): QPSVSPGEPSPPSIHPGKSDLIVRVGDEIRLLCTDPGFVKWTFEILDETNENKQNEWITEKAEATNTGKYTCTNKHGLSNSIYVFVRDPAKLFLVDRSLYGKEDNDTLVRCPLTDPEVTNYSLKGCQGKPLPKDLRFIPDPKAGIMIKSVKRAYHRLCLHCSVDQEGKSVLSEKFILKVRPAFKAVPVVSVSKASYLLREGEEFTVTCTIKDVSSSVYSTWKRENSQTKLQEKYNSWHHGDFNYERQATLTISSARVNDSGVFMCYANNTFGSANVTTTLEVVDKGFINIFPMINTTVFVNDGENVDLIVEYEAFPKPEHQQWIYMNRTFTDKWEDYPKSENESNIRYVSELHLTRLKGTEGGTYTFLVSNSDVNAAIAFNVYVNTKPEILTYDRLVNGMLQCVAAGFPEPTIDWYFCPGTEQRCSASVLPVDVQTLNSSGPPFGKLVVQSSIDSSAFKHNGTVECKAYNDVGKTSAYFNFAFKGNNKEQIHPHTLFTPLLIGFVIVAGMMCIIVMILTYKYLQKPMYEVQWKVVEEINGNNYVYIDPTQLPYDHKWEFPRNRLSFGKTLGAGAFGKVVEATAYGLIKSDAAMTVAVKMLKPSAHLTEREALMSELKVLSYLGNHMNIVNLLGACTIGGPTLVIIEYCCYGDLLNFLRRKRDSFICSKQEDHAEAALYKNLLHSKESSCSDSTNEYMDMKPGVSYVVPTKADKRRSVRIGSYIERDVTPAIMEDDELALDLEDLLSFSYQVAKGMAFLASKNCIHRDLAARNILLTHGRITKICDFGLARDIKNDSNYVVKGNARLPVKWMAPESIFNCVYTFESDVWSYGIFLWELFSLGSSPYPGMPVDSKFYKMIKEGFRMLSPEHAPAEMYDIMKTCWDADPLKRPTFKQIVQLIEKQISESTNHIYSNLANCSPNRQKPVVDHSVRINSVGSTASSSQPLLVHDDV
T5 sequence (Q12851 whole entry): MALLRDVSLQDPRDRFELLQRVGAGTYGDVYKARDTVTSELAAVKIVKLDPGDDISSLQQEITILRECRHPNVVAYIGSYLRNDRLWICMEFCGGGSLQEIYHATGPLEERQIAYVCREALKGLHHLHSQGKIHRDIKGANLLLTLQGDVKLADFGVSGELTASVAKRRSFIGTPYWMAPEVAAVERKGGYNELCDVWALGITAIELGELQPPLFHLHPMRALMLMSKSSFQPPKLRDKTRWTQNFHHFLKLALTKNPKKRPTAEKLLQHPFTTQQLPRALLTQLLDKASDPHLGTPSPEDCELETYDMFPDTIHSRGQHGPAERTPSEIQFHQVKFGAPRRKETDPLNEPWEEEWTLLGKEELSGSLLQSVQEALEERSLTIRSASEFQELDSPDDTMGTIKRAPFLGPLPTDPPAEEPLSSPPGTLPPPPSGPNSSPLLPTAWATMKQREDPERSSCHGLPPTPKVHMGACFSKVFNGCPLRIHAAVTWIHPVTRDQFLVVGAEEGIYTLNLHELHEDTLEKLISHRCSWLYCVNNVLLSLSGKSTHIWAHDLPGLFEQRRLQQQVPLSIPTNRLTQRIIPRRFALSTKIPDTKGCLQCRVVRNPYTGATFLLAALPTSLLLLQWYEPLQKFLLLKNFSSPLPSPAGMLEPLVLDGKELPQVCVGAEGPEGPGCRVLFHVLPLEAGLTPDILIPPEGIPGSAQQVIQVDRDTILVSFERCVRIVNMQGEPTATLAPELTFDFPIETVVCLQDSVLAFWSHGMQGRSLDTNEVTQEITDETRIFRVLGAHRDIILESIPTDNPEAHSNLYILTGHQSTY
T3 sequence (Q08881 whole entry): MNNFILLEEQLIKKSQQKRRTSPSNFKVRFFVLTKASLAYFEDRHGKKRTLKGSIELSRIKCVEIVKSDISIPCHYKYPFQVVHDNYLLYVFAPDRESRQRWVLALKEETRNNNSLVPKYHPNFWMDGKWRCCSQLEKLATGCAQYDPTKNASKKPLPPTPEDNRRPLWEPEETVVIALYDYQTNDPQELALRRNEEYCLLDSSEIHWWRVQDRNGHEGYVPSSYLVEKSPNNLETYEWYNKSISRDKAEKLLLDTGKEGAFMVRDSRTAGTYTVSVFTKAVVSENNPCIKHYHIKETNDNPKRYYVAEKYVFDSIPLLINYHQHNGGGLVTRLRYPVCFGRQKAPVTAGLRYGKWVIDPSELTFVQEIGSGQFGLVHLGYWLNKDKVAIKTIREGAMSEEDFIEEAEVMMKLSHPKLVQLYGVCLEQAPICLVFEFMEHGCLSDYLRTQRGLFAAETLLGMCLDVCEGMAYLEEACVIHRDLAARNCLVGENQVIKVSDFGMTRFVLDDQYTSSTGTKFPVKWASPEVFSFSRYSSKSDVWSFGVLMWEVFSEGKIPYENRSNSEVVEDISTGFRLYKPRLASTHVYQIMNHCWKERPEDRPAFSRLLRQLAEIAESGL
T6 sequence (P41279 whole entry): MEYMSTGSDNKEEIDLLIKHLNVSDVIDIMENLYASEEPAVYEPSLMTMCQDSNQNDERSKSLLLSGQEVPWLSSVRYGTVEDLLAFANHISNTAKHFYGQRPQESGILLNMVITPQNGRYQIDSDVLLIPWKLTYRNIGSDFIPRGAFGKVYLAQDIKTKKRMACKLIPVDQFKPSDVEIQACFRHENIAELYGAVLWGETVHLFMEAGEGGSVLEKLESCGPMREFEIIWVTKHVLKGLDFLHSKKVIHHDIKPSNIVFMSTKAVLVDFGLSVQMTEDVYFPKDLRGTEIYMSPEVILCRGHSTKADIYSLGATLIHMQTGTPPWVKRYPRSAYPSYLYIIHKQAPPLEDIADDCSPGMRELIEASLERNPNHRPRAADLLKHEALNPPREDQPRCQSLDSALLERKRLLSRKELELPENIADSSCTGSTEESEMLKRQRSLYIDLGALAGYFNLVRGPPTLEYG

One may read the EC50 as the concentration that produces a half-maximal response. Take `CN(C)CCCCCNc1ccc2ncn3c4ccc5[nH]ncc5c4c(=O)c1c23` [(III)]: at BaF3-D835N, the EC50 worked out at 316 nM.

As for `CN(C)CCCNc1ccc2ncn3c4ccc5[nH]ncc5c4c(=O)c1c23` [Compound (IV)], the EC50 on EPHA2 is more than 5 µM; on ITK it was 0.637 µM; on KIT T670I, more than 5 µM; at MAP4K2 (GCK) it was more than 5 µM; on MAP3K8 (COT), more than 5 µM; at AURKB (Aurora B) it was more than 5 µM. Besides, the EC50 at BaF3-D835N turned out to be 12 nM.

With `CCN(CC)CCNc1ccc2ncn3c4ccc(O)cc4c(=O)c1c23` [Symadex, 5-(2-(diethylamino)ethylamino)-8-hydroxy-6H-imidazo[4,5,1-de]acridin-6-one, reference compound], the EC50 at EPHA2 is more than 5 µM; on ITK it was more than 5 µM; on KIT T670I, more than 5 µM; on MAP4K2 (GCK), 4.93 µM; at MAP3K8 (COT), 4.63 µM; at AURKB (Aurora B) it was more than 5 µM. At BaF3-D835N, the EC50 worked out at 14.3 nM.
